The target of one test is T1, Lyn enzyme (Homo sapiens, UniProt P07948).
T1 construct: purchased Millipore 14-510
Briefly: Lyn enzyme activity, IMAP fluorescence polarization assay. The settings on record: 60 min pre-incubation, 2 μM ATP (Km). The class given is biochemical. How it is done: Lyn enzyme activity is measured using the IMAP (immobilized metal ion affinity-based fluorescence polarization) assay as outlined below.
Lyn enzyme (Millipore catalog#14-510), is diluted to 250 mU/mL in KR buffer (10 mM Tris-HCl, 10 mM MgCl2, 0.01% Tween-20, 0.05% NaN3, 1 mM DTT, 2 mM MnCl2, pH 7.2). Serial dilution log 10 from 2 mM to 63.2 nM of test compounds are made in 100% DMSO. The dilutions in DMSO are then diluted 50-fold in KR-buffer of which 5 μl is used in the assay, leading to a final compound concentration range in the assay from 10 μM to 0.316 nM. 5 μL/well of test compound in KR buffer (final DMSO concentration in the assay is 1%) is mixed with 5 μl/well of 250 mU/mL Lyn enzyme (final concentration in the assay is 62.5 mU/mL). Test compounds and Lyn enzyme are pre-incubated 60 minutes at room temperature, before adding 5 μL/well of 400 nM Fluorescin labeled substrate peptide (Blk/Lyntide substrate, e.g. #R7188/#R7233, Molecular Devices) in KR-buffer. Final peptide substrate concentration in assay is 100 nM. The kinase assay is started by adding 5 μL/well of 8 μM ATP in KR-buffer (final ATP concentration is 2 μM ATP, Km ATP in Lyn IMAP assay). Following incubation for 2 h at room temperature the enzyme reaction is stopped by adding 40 μL/well IMAP Progressive Binding Solution (according to suppliers (Molecular Devices) protocol using 75% 1× buffer A and 25% 1× buffer B with 1:600 Progressive Binding Solution). After 60 min incubation at room temperature in the dark the FP signal is read. Fluorescence at 535 nm is measured using parallel and perpendicular filters to determine differences in rotation due to binding of the phosphorylated substrate peptide to the beads. Values are calculated as percentage of the difference in readout (ΔmPi) of the controls with and without ATP. EC50 values are determined by curve fitting of the experimental results using Activity Base.
(Fluorescence polarisation rises when a labelled molecule tumbles more slowly, as on binding a larger partner.)

The target of another test is T2, Btk enzyme (His-Btk) (Homo sapiens, UniProt Q06187).
T2 construct: His; purchased Millipore 14-552
Briefly: Btk enzyme activity, IMAP fluorescence polarization assay. The class given is biochemical. The settings on record: 60 min pre-incubation, 5 μM ATP (Km). From the text:
Inhibition of kinase activity can be measured using the Immobilized Metal Assay for Phosphochemicals (IMAP) assay. IMAP is a homogeneous fluorescence polarization (FP) assay based on affinity capture of phosphorylated peptide substrates. IMAP uses fluorescein-labeled peptide substrates that, upon phosphorylation by a protein kinase, bind to so-called IMAP nanoparticles, which are derivatized with trivalent metal complexes. Binding causes a change in the rate of the molecular motion of the peptide, and results in an increase in the FP value observed for the fluorescein label attached to the substrate peptide (Gaudet et al. A homogeneous fluorescence polarization assay adaptable for a range of protein serine/threonine and tyrosine kinases. J. Biomol. Screen (2003) 8, 164-175).
Btk enzyme activity is measured using the IMAP (immobilized metal ion affinity-based fluorescence polarization) assay as outlined below.
Btk enzyme (His-Btk (Millipore catalog#14-552), is diluted to 0.4 U/mL in KR buffer (10 mM Tris-HCl, 10 mM MgCl2, 0.01% Tween-20, 0.05% NaN3, 1 mM DTT, 2 mM MnCl2, pH 7.2).
Serial dilution log 10 from 2 mM to 63.2 nM of test compounds are made in 100% DMSO. The dilutions in DMSO are then diluted 50-fold in KR-buffer. Final compound concentration range in the assay from 10 μM to 0.316 nM.
5 μL/well of test compound in KR buffer (final DMSO concentration in the assay is 1%) is mixed with 5 μl/well of 0.4 U/mL Btk enzyme (final concentration in the assay is 0.1 U/mL). Test compounds and Btk enzyme are pre-incubated 60 minutes at room temperature, before adding 5 μL/well of 200 nM Fluorescin labeled substrate peptide (Blk/Lyntide substrate, e.g. #R7188/#R7233, Molecular Devices) in KR-buffer. Final peptide substrate concentration in assay is 50 nM. The kinase assay is started by adding 5 μL/well of 20 μM ATP in KR-buffer (final ATP concentration is 5 μM ATP, Km ATP in Btk IMAP assay). Following incubation for 2 h at room temperature the enzyme reaction is stopped by adding 40 μL/well IMAP Progressive Binding Solution (according to suppliers (Molecular Devices) protocol using 75% 1× buffer A and 25% 1× buffer B with 1:600 Progressive Binding Solution). After 60 min incubation at room temperature in the dark the FP signal is read. Fluorescence at 535 nm is measured using parallel and perpendicular filters to determine differences in rotation due to binding of the phosphorylated substrate peptide to the beads. Values are calculated as percentage of the difference in readout (ΔmPi) of the controls with and without ATP. EC50 values are determined by curve fitting of the experimental results using Activity Base.

T1 sequence (P07948 whole entry): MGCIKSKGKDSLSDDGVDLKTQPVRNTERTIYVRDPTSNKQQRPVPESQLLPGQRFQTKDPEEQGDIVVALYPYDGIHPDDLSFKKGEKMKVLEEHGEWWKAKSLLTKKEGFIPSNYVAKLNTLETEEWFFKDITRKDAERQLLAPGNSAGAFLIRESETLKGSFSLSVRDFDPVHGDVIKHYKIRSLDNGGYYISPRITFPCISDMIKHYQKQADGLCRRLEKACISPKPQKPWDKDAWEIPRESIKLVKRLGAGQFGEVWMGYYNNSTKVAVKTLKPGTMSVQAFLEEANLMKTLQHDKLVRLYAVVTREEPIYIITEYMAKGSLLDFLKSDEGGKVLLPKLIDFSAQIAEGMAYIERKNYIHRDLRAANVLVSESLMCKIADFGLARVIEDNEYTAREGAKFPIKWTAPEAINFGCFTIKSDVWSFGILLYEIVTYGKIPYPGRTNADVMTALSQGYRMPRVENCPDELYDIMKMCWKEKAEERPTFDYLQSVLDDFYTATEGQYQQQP
T2 sequence (Q06187 whole entry): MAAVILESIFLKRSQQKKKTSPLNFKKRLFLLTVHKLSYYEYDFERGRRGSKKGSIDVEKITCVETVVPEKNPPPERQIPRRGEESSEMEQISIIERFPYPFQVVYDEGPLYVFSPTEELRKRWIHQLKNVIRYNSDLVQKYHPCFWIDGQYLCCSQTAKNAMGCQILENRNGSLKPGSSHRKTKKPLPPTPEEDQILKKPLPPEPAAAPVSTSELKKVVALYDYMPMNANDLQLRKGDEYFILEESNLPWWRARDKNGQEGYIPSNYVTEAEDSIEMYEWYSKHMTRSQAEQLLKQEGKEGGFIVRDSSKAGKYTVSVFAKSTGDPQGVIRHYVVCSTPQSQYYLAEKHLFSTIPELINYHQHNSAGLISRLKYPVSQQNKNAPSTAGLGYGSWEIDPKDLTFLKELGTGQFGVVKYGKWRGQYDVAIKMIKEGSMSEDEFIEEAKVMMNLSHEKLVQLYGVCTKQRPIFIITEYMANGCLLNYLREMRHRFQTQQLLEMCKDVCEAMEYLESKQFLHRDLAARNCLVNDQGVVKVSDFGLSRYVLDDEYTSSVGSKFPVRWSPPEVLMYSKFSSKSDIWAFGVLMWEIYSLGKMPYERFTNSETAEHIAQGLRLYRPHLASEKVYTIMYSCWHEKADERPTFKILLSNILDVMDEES

The EC50 is the concentration giving half of the maximal effect. With `C=CC(=O)N1CCCC[C@H]1c1nc(-c2ccc(C(=O)Nc3cc(CCC)ccn3)cc2)c2c(C)nccn12` [Example 2, (S)-4-(3-(1-Acryloylpiperidin-2-yl)-8-methylimidazo[1,5-a]pyrazin-1-yl)-N-(4-propylpyridin-2-yl)benzamide], the values for the EC50 on Lyn enzyme and on Btk enzyme (His-Btk) (bin bounds given in nM) were at least 1000 nM and below 10 nM, respectively.
For `CCCc1ccnc(NC(=O)c2ccc(-c3nc([C@@H]4CCCCN4C(=O)/C=C/CN(C)C)n4ccnc(C)c34)cc2)c1` [Example 3, (S,E)-4-(3-(1-(4-(Dimethylamino)but-2-enoyl)piperidin-2-yl)-8-methylimidazo[1,5-a]pyrazin-1-yl)-N-(4-propylpyridin-2-yl)benzamide] the same measures were at least 1000 nM and below 10 nM.
The corresponding values for `C=CS(=O)(=O)N1CCCC[C@H]1c1nc(-c2ccc(C(=O)Nc3cc(CCC)ccn3)cc2)c2c(C)nccn12` [Example 4, (S)-4-(8-Methyl-3-(1-(vinylsulfonyl)piperidin-2-yl)imidazo[1,5-a]pyrazin-1-yl)-N-(4-propylpyridin-2-yl)benzamide] are at least 1000 nM and below 10 nM.
Turning to `COC/C=C/C(=O)N[C@@H](C)c1nc(-c2ccc(C(=O)Nc3cc(C(F)(F)F)ccn3)cc2)c2c(C)nccn12` [Example 6, (S,E)-4-(3-(1-(4-Methoxybut-2-enamido)ethyl)-8-methylimidazo[1,5-a]pyrazin-1-yl)-N-(4-(trifluoromethyl)pyridin-2-yl)benzamide], the EC50 was at least 1000 nM at Lyn enzyme and below 10 nM on Btk enzyme (His-Btk) (bin bounds given in nM).
On to `CC#CC(=O)N[C@@H](C)c1nc(-c2ccc(C(=O)Nc3cc(C(F)(F)F)ccn3)cc2)c2c(C)nccn12` [Example 7, (S)-4-(3-(1-But-2-ynamidoethyl)-8-methylimidazo[1,5-a]pyrazin-1-yl)-N-(4-(trifluoromethyl)pyridin-2-yl)benzamide], for which the results for the EC50 at Lyn enzyme and at Btk enzyme (His-Btk) (bin bounds given in nM) were at least 1000 nM and below 10 nM, respectively.
In the case of `C=CC(=O)N[C@@H](C)c1nc(-c2ccc(C(=O)Nc3cc(C(F)(F)F)ccn3)cc2)c2c(C)nccn12` [Example 8, (S)-4-(3-(1-Acrylamidoethyl)-8-methylimidazo[1,5-a]pyrazin-1-yl)-N-(4-(trifluoromethyl)pyridin-2-yl)benzamide], the EC50 on Lyn enzyme is at least 1000 nM; on Btk enzyme (His-Btk) (bin bounds given in nM) it was below 10 nM.
The corresponding values for `C=CC(=O)N1CCC[C@H]1c1nc(-c2ccc(C(=O)Nc3cc(CCC)ccn3)cc2)c2c(C)nccn12` [Example 9, (S)-4-(3-(1-Acryloylpyrrolidin-2-yl)-8-methylimidazo[1,5-a]pyrazin-1-yl)-N-(4-propylpyridin-2-yl)benzamide] are at least 1000 nM and below 10 nM.
Turning to `C=CC(=O)N1CCC[C@H]1c1nc(-c2ccc(C(=O)Nc3cc(C(F)(F)F)ccn3)cc2)c2c(C)nccn12` [Example 10, (S)-4-(3-(1-Acryloylpyrrolidin-2-yl)-8-methylimidazo[1,5-a]pyrazin-1-yl)-N-(4-(trifluoromethyl)pyridin-2-yl)benzamide], the values for the EC50 on Lyn enzyme and at Btk enzyme (His-Btk) (bin bounds given in nM) were at least 1000 nM and below 10 nM, respectively.
For `C=CC(=O)N1CCC[C@H]1c1nc(-c2ccc(C(=O)Nc3cc(C#N)ccn3)cc2)c2c(C)nccn12` [Example 13, (S)-4-(3-(1-Acryloylpyrrolidin-2-yl)-8-methylimidazo[1,5-a]pyrazin-1-yl)-N-(4-cyanopyridin-2-yl)benzamide], the EC50 is at least 1000 nM at Lyn enzyme and below 10 nM at Btk enzyme (His-Btk) (bin bounds given in nM).
For `CC#CC(=O)N1CCC[C@H]1c1nc(-c2ccc(C(=O)Nc3cc(C)ccn3)cc2)c2c(C)nccn12` [Example 15, (S)-4-(3-(1-but-2-ynoylpyrrolidin-2-yl)-8-methylimidazo[1,5-a]pyrazin-1-yl)-N-(4-methylpyridin-2-yl)benzamide], the EC50 was at least 1000 nM on Lyn enzyme, at least 100 nM on Btk enzyme (His-Btk) (bin bounds given in nM) and below 1000 nM on Btk enzyme (His-Btk) (bounds given in μM).
In the case of `CCCc1ccnc(NC(=O)c2ccc(-c3nc([C@H](C)N(C)C(=O)/C=C/CN(C)C)n4ccnc(C)c34)cc2)c1` [Example 18, (S,E)-4-(3-(1-(4-(dimethylamino)-N-methylbut-2-enamido)ethyl)-8-methylimidazo[1,5-a]pyrazin-1-yl)-N-(4-propylpyridin-2-yl)benzamide], the results for the EC50 at Lyn enzyme and at Btk enzyme (His-Btk) (bin bounds given in nM) were at least 1000 nM and below 10 nM, respectively.
For the compound `C=CC(=O)N1CCC[C@H]1c1nc(-c2ccc(C(=O)Nc3ccccn3)cc2)c2c(C)nccn12` [Example 19, (S)-4-(3-(1-acryloylpyrrolidin-2-yl)-8-methylimidazo[1,5-a]pyrazin-1-yl)-N-(pyridin-2-yl)benzamide], the results for the EC50 on Lyn enzyme and on Btk enzyme (His-Btk) (bin bounds given in nM) were at least 1000 nM and below 10 nM, respectively.
For the compound `Cc1nccn2c([C@@H]3CCCCN3C(=O)/C=C/CN3CCCC3)nc(-c3ccc(C(=O)Nc4cc(C(F)(F)F)ccn4)cc3)c12` [Example 21, (S,E)-4-(8-methyl-3-(1-(4-(pyrrolidin-1-yl)but-2-enoyl)piperidin-2-yl)imidazo[1,5-a]pyrazin-1-yl)-N-(4-(trifluoromethyl)pyridin-2-yl)benzamide], the EC50 was at least 1000 nM on Lyn enzyme and below 10 nM at Btk enzyme (His-Btk) (bin bounds given in nM).
Regarding `CC#CC(=O)N1CCCC[C@H]1c1nc(-c2ccc(C(=O)Nc3cc(CCC)ccn3)cc2)c2c(C)nccn12` [Example 22, (S)-4-(3-(1-but-2-ynoylpiperidin-2-yl)-8-methylimidazo[1,5-a]pyrazin-1-yl)-N-(4-propylpyridin-2-yl)benzamide], the EC50 was at least 1000 nM at Lyn enzyme and below 10 nM at Btk enzyme (His-Btk) (bin bounds given in nM).
Consider `C=CC(=O)N[C@@H](C)c1nc(-c2ccc(C(=O)Nc3cc(CCC)ccn3)cc2)c2c(C)nccn12` [Example 23, (S)-4-(3-(1-acrylamidoethyl)-8-methylimidazo[1,5-a]pyrazin-1-yl)-N-(4-propylpyridin-2-yl)benzamide], for which the EC50 was at least 1000 nM at Lyn enzyme and below 10 nM on Btk enzyme (His-Btk) (bin bounds given in nM).
Turning to `CC#CC(=O)N(C)[C@@H](C)c1nc(-c2ccc(C(=O)Nc3cc(CCC)ccn3)cc2)c2c(C)nccn12` [Example 24, (S)-4-(8-methyl-3-(1-(N-methylbut-2-ynamido)ethyl)imidazo[1,5-a]pyrazin-1-yl)-N-(4-propylpyridin-2-yl)benzamide], the concentration for a half-maximal effect (EC50) at Lyn enzyme is at least 1000 nM; at Btk enzyme (His-Btk) (bin bounds given in nM), below 10 nM.
`Cc1nccn2c([C@@H]3CCCN3C(=O)/C=C/CN3CCCC3)nc(-c3ccc(C(=O)Nc4ccccn4)cc3)c12` [Example 25, (S,E)-4-(8-methyl-3-(1-(4-(pyrrolidin-1-yl)but-2-enoyl)pyrrolidin-2-yl)imidazo[1,5-a]pyrazin-1-yl)-N-(pyridin-2-yl)benzamide]: the EC50 at Lyn enzyme is at least 1000 nM; on Btk enzyme (His-Btk) (bin bounds given in nM), at least 100 nM; at Btk enzyme (His-Btk) (bounds given in μM) it was below 1000 nM.

These data come from US20140155406A1, “4-IMIDAZOPYRIDAZIN-1-YL-BENZAMIDES AND 4-IMIDAZOTRIAZIN-1-YL-BENZAMIDES BTK INHIBITORS” (priority 2011, published 2014).
